Source: patent US10408783B2, “Electrochemical methods and compounds for the detection of enzymes” (GEORGIA STATE UNIVERSITY RESEARCH FOUNDATION, INC., priority 2014, dated 2019)
Entries after “also recorded” stand apart in the source; their conditions may differ.

Legend:
[1] = test system: membrane free soluble N1 NA (strain H5N1 A/Anhui/1/2005); type: biochemical, influenza virus; conditions: SG1 0.5 mM, 2 hours, 23° C., PBS buffer
[2] = test system: N2 NA (strain A/Babol/36/2005); test: Electrochemical assay, 3 electrode system: SG1 cleavage and drug susceptibility; type: biochemical, influenza virus; conditions: SG1 0.5 mM, 2 hours, 23° C., PBS buffer
[3] = test system: H1N1 A/Brisbane/59/2007; test: as above; type: biochemical, Influenza A virus
[4] = test system: H3N2 A/Aichi/2/1968; test: as above; type: biochemical, Influenza A virus; conditions: 100 μL UV inactivated virus, 1 hour
[5] = test system: H3N2 A/HongKong/8/68; test: as above; type: biochemical, Influenza A virus; conditions: 100 μL UV inactivated virus, 1 hour
[6] = test system: bacterial NA (BNA) from Clostridium perfringens; type: biochemical; conditions: bacterial NA, no antiviral
[7] = Electrochemical assay, 3 electrode system: SG1 in PBS buffer without enzyme; conditions: SG1 0.5 mM in PBS buffer, no NA or virus
[8] = test system: A/Wilson-Smith/1933 (H1N1); test: Electrochemical assay using the printed electrodes; type: biochemical, Influenza A virus; conditions: 100 μL virus + 100 μL PBS buffer with SG1, 1 hour, 37° C.; 20 μL tested
[9] = test system: A/PuertoRico/8/1934 (H1N1); test: Electrochemical assay using the printed electrodes; type: biochemical, Influenza A virus; conditions: 100 μL virus + 100 μL PBS buffer with SG1, 1 hour, 37° C.; 20 μL tested
[10] = test system: A/HongKong/8/1968 (H3N2); test: Electrochemical assay using the printed electrodes; type: biochemical, Influenza A virus; conditions: 100 μL virus + 100 μL PBS buffer with SG1, 1 hour, 37° C.; 20 μL tested
[11] = test system: A/Aichi/2/1968 (H1N1); test: Electrochemical assay using the printed electrodes; type: biochemical, Influenza A virus
[12] = test system: A/Beijing/262/1995 (H1N1); test: Electrochemical assay using the printed electrodes; type: biochemical, Influenza A virus; conditions: 100 μL virus + 100 μL PBS buffer with SG1, 1 hour, 37° C.; 20 μL tested
[13] = test system: A/Nanching/933/1995 (H3N2); test: Electrochemical assay using the printed electrodes; type: biochemical, Influenza A virus; conditions: 100 μL virus + 100 μL PBS buffer with SG1, 1 hour, 37° C.; 20 μL tested
[14] = test system: A/Sydney/5/1997 (H3N2); test: Electrochemical assay using the printed electrodes; type: biochemical, Influenza A virus; conditions: 100 μL virus + 100 μL PBS buffer with SG1, 1 hour, 37° C.; 20 μL tested
[15] = test system: A/New Caledonia/20/1999 (H1N1); test: Electrochemical assay using the printed electrodes; type: biochemical, Influenza A virus
[16] = test system: A/Solomon Islands/3/2006 (H1N1); test: Electrochemical assay using the printed electrodes; type: biochemical, Influenza A virus; conditions: 100 μL virus + 100 μL PBS buffer with SG1, 1 hour, 37° C.; 20 μL tested
[17] = test system: A/Uruguay/716/2007 (H3N2); test: Electrochemical assay using the printed electrodes; type: biochemical, Influenza A virus; conditions: 100 μL virus + 100 μL PBS buffer with SG1, 1 hour, 37° C.; 20 μL tested
[18] = test system: A/Brisbane/59/2007 (H1N1); test: Electrochemical assay using the printed electrodes; type: biochemical, Influenza A virus; conditions: 100 μL virus + 100 μL PBS buffer with SG1, 1 hour, 37° C.; 20 μL tested
[19] = test system: A/California/07/2009 (H1N1); test: Electrochemical assay using the printed electrodes; type: biochemical, Influenza A virus; conditions: 100 μL virus + 100 μL PBS buffer with SG1, 1 hour, 37° C.; 20 μL tested
[20] = test system: A/New York/18/2009 (H1N1); test: Electrochemical assay using the printed electrodes; type: biochemical, Influenza A virus; conditions: 100 μL virus + 100 μL PBS buffer with SG1, 1 hour, 37° C.; 20 μL tested
[21] = test system: A/San Diego/1/2009 (H1N1); test: Electrochemical assay using the printed electrodes; type: biochemical, Influenza A virus; conditions: 100 μL virus + 100 μL PBS buffer with SG1, 1 hour, 37° C.; 20 μL tested
[22] = test system: A/Wisconsin/629-D02452/2009 (H1N1); test: Electrochemical assay using the printed electrodes; type: biochemical, Influenza A virus; conditions: 100 μL virus + 100 μL PBS buffer with SG1, 1 hour, 37° C.; 20 μL tested
[23] = test system: A/Wisconsin/15/2009 (H3N2); test: Electrochemical assay using the printed electrodes; type: biochemical, Influenza A virus; conditions: 100 μL virus + 100 μL PBS buffer with SG1, 1 hour, 37° C.; 20 μL tested
[24] = test system: A/Brownsville/31H/2009 (H1N1); test: Electrochemical assay using the printed electrodes; type: biochemical, Influenza A virus; conditions: 100 μL virus + 100 μL PBS buffer with SG1, 1 hour, 37° C.; 20 μL tested
[25] = test system: A/Victoria/361/2011 (H3N2); test: Electrochemical assay using the printed electrodes; type: biochemical, Influenza A virus; conditions: 100 μL virus + 100 μL PBS buffer with SG1, 1 hour, 37° C.; 20 μL tested
[26] = Electrochemical assay using the printed electrodes, SG1 without virus; conditions: No virus + SG1 (negative control)
[27] = 0.5 mM SG1, compared with one hour for most strains
[28] = 100 μL virus + 100 μL PBS buffer with SG1, 1 hour, 37° C., 20 μL tested

## CC(=O)N[C@H]1[C@H]([C@H](O)[C@H](O)CO)O[C@@](OC[C@H]2OC(O)[C@H](O)[C@@H](O)[C@@H]2O)(C(=O)O)C[C@@H]1O (stereo partly drawn) [SG1, 5-acetamido-3,5-dideoxy-D-glycero-α-D-galacto-non-2-ulopyranosylonate-(2→6)-α,β-D-gluco pyranoside]
[1]
  cleavage of SG1 / glucose release: complete cleavage; also recorded: Glucose was released
[2]
  cleavage of SG1 / glucose release: complete cleavage; also recorded: Glucose was released
[3]
  matrix effect on cleavage of SG1: does not affect the cleavage
[3]; 100 μL UV inactivated virus, 1 hour
  cleavage of SG1 / glucose release: cleave SG1, releasing glucose; also recorded: Glucose was released
[4]
  cleavage of SG1 / glucose release: cleave SG1, releasing glucose; also recorded: Glucose was released
[5]
  cleavage of SG1 / glucose release: cleave SG1, releasing glucose; also recorded: Glucose was released
[6]
  cleavage of SG1 / glucose release: cleaves SG1 to release glucose
[7]
  glucose release in the absence of enzymes: no glucose released
[8]
  Electrochemical assay (current): 99.5 ± 4.4 ×10^−8 A
[9]
  Electrochemical assay (current): 13.4 ± 2.0 ×10^−8 A
[10]
  Electrochemical assay (current): 64.4 ± 5.2 ×10^−8 A
[11]; [27]
  time to completely cleave SG1: require longer time to completely cleave SG1
[11]; [28]
  Electrochemical assay (current): 31.3 ± 5.3 ×10^−8 A
[12]
  Electrochemical assay (current): 118.1 ± 11.6 ×10^−8 A
[13]
  Electrochemical assay (current): 15.1 + 2.8 ×10^−8 A
[14]
  Electrochemical assay (current): 115.7 ± 4.3 ×10^−8 A
[15]; [27]
  time to completely cleave SG1: require longer time to completely cleave SG1
[15]; [28]
  Electrochemical assay (current): 17.7 ± 2.6 ×10^−8 A
[16]
  Electrochemical assay (current): 79.7 ± 5.0 ×10^−8 A
[17]
  Electrochemical assay (current): 132.4 ± 6.3 ×10^−8 A
[18]
  Electrochemical assay (current): 106.2 ± 5.1 ×10^−8 A
[19]
  Electrochemical assay (current): 13.4 + 1.5 ×10^−8 A
[20]
  Electrochemical assay (current): 74.4 ± 5.6 ×10^−8 A
[21]
  Electrochemical assay (current): 108.5 ± 12.0 ×10^−8 A
[22]
  Electrochemical assay (current): 98.9 ± 5.7 ×10^−8 A
[23]
  Electrochemical assay (current): 107.8 ± 5.9 ×10^−8 A
[24]
  Electrochemical assay (current): 91.7 ± 9.7 ×10^−8 A
[25]
  Electrochemical assay (current): 94.5 ± 2.3 ×10^−8 A
[26]
  Electrochemical assay (current): 3.6 ± 2.2 ×10^−8 A
